# Results taken from PubChem BioAssay (NCI).
#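 Exposure lasted 48 hours, with cells grown in 96-well plates and compounds tested at five concentrations. The concentration for full growth arrest is given as TGI.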
# Legend:
# Assay in all cases: DTP human tumour cell line panel, 48 h
# [1] = tested on: SR leukemia
# [2] = tested on: 786-0 renal
# [3] = tested on: SNB-75 CNS
# [4] = tested on: RXF 393 renal
# [5] = tested on: COLO 205 colon
# [6] = tested on: NCI-H226 lung
# [7] = tested on: UO-31 renal
# [8] = tested on: NCI-H23 lung
# [9] = tested on: HS 578T breast
# [10] = tested on: PC-3 prostate
# [11] = tested on: A498 renal
# [12] = tested on: UACC-257 melanoma
# [13] = tested on: NCI/ADR-RES ovarian
# [14] = tested on: SK-MEL-2 melanoma
# [15] = tested on: MCF7 breast
# [16] = tested on: KM12 colon
# [17] = tested on: BT-549 breast
# [18] = tested on: SW-620 colon
# [19] = tested on: SK-OV-3 ovarian
# [20] = tested on: IGROV1 ovarian
# [21] = tested on: HCC-2998 colon
# [22] = tested on: SK-MEL-5 melanoma
# [23] = tested on: K-562 leukemia
# [24] = tested on: MOLT-4 leukemia
# [25] = tested on: LOX IMVI melanoma
# [26] = tested on: MDA-MB-231 breast
# [27] = tested on: MDA-MB-435
# [28] = tested on: NCI-H522 lung
# [29] = tested on: U251 CNS
# [30] = tested on: UACC-62 melanoma
# [31] = tested on: SF-268 CNS
# [32] = tested on: SNB-19 CNS
# [33] = tested on: HL-60(TB) leukemia
# [34] = tested on: MALME-3M melanoma
# [35] = tested on: A549 NSCLC
# [36] = tested on: SN12C renal
# [37] = tested on: SF-295 CNS
# [38] = tested on: OVCAR-5 ovarian
# [39] = tested on: CCRF-CEM leukemia
# [40] = tested on: NCI-H460 lung
# [41] = tested on: HOP-92 NSCLC
# [42] = tested on: CAKI-1 renal
# [43] = tested on: T-47D breast
# [44] = tested on: MDA-N
# [45] = tested on: HCT-116 colon
# [46] = tested on: HCT-15 colon
# [47] = tested on: HOP-62 NSCLC
# [48] = tested on: RPMI-8226 leukemia
# [49] = tested on: OVCAR-3 ovarian
# [50] = tested on: HT29 colon
# [51] = tested on: SK-MEL-28 melanoma
# [52] = tested on: DU-145 prostate
# [53] = tested on: M14 melanoma
# [54] = tested on: ACHN renal
# [55] = tested on: EKVX NSCLC
# [56] = tested on: OVCAR-8 ovarian
# [57] = tested on: OVCAR-4 ovarian
# [58] = tested on: TK-10 renal
# [59] = tested on: SF-539 CNS
smiles,measurement,setting,value
O=C(OC1OC2COC(=O)c3cc(O)c(O)c(O)c3-c3c(cc(O)c(O)c3O)C(=O)OC3C2OC(=O)[C@@]24CC(=O)[C@@](O)(OC25C(=O)O[C@H]2[C@@H](O)CO[C@@]25O)C2(O)Oc5c(O)c(O)cc(c5C24)C(=O)OC13)c1cc(O)c(O)c(O)c1 (stereo not given in full),TGI,[1],94.6 µM
same,TGI,[2],> 100 µM
same,TGI,[3],> 100 µM
same,TGI,[4],> 100 µM
same,TGI,[5],> 100 µM
same,TGI,[6],> 100 µM
same,TGI,[7],> 100 µM
same,TGI,[8],> 100 µM
same,TGI,[9],> 100 µM
same,TGI,[10],> 100 µM
same,TGI,[11],> 100 µM
same,TGI,[12],> 100 µM
same,TGI,[13],> 100 µM
same,TGI,[14],> 100 µM
same,TGI,[15],29.1 µM
same,TGI,[16],68.6 µM
same,TGI,[17],> 100 µM
same,TGI,[18],> 100 µM
same,TGI,[19],> 100 µM
same,TGI,[20],> 100 µM
same,TGI,[21],> 100 µM
same,TGI,[22],> 100 µM
same,TGI,[23],> 100 µM
same,TGI,[24],> 100 µM
same,TGI,[25],25.1 µM
same,TGI,[26],18.5 µM
same,TGI,[27],33 µM
same,TGI,[28],88 µM
same,TGI,[29],> 100 µM
same,TGI,[30],> 100 µM
same,TGI,[31],> 100 µM
same,TGI,[32],> 100 µM
same,TGI,[33],92.3 µM
same,TGI,[34],> 100 µM
same,TGI,[35],> 100 µM
same,TGI,[36],> 100 µM
same,TGI,[37],> 100 µM
same,TGI,[38],> 100 µM
same,TGI,[39],87.8 µM
same,TGI,[40],> 100 µM
same,TGI,[41],> 100 µM
same,TGI,[42],32.1 µM
same,TGI,[43],> 100 µM
same,TGI,[44],> 100 µM
same,TGI,[45],> 100 µM
same,TGI,[46],> 100 µM
same,TGI,[47],> 100 µM
same,TGI,[48],> 100 µM
same,TGI,[49],> 100 µM
same,TGI,[50],> 100 µM
same,TGI,[51],> 100 µM
same,TGI,[52],> 100 µM
same,TGI,[53],> 100 µM
same,TGI,[54],> 100 µM
same,TGI,[55],> 100 µM
same,TGI,[56],> 100 µM
same,TGI,[57],> 100 µM
CC(=O)Oc1ccc(-c2nnc(-c3ccc(OC(C)=O)cc3)nn2)cc1,TGI,[1],88.1 µM
same,TGI,[58],> 100 µM
same,TGI,[2],> 100 µM
same,TGI,[3],> 100 µM
same,TGI,[4],> 100 µM
same,TGI,[5],> 100 µM
same,TGI,[6],> 100 µM
same,TGI,[7],> 100 µM
same,TGI,[8],> 100 µM
same,TGI,[9],> 100 µM
same,TGI,[10],> 100 µM
same,TGI,[11],> 100 µM
same,TGI,[12],> 100 µM
same,TGI,[13],> 100 µM
same,TGI,[14],> 100 µM
same,TGI,[15],> 100 µM
same,TGI,[16],> 100 µM
same,TGI,[17],> 100 µM
same,TGI,[18],> 100 µM
same,TGI,[19],> 100 µM
same,TGI,[20],> 100 µM
same,TGI,[22],> 100 µM
same,TGI,[59],> 100 µM
same,TGI,[23],> 100 µM
same,TGI,[24],> 100 µM
same,TGI,[25],> 100 µM
same,TGI,[26],> 100 µM
same,TGI,[27],> 100 µM
same,TGI,[28],> 100 µM
same,TGI,[29],> 100 µM
same,TGI,[30],> 100 µM
same,TGI,[31],> 100 µM
same,TGI,[32],> 100 µM
same,TGI,[33],84 µM
same,TGI,[34],> 100 µM
same,TGI,[35],> 100 µM
same,TGI,[36],> 100 µM
same,TGI,[37],> 100 µM
same,TGI,[38],> 100 µM
same,TGI,[39],> 100 µM
same,TGI,[40],> 100 µM
same,TGI,[41],> 100 µM
same,TGI,[42],> 100 µM
same,TGI,[43],> 100 µM
same,TGI,[44],> 100 µM
same,TGI,[45],> 100 µM
same,TGI,[46],> 100 µM
same,TGI,[47],> 100 µM
same,TGI,[48],> 100 µM
same,TGI,[49],> 100 µM
same,TGI,[50],> 100 µM
same,TGI,[51],> 100 µM
same,TGI,[52],> 100 µM
same,TGI,[53],> 100 µM
same,TGI,[54],> 100 µM
same,TGI,[55],> 100 µM
same,TGI,[56],> 100 µM
same,TGI,[57],> 100 µM
